Data as given in article PMC10485906, “Development of a Dihydroquinoline–Pyrazoline GluN2C/2D-Selective Negative Allosteric Modulator of the N-Methyl-D-aspartate Receptor” (ACS Chemical Neuroscience, 2023).
“Also recorded” adds a separate entry of the source.

Tested on: AMPA, kainate, GluN1/GluN3, GABA, glycine, nicotinic, purinergic P2X receptors
Assay: Off-target actions, summary in words
Type: cell-based
Details: 1 μM
Procedure: By contrast, the other enantiomer (R)-(+)-2i had lower potency and produced shallow, incomplete inhibition (Figure S11).
Analysis of Off-target Actions
Compound (S)-(-)-2i was tested at 1 µM for actions at glycine-activated GluN1/GluN3A (human GluN1-F484A,T518L/GluN3A referred to a GluN1-FA,TL/GluN3A) and rat GluN1-4a/GluN3B in the presence of 0.5 µM CGP-78608. cRNA injection ratios for GluN1/GluN3 were 1:2. Compound (S)-(-)- 2i was also tested for actions at AMPA (rat GluA1, rat GluA2, human GluA3-L531Y), kainate (rat GluK2), nicotinic acetylcholine (rat α7 and α4β2, cRNA ratio 1:1), GABAA (rat α1β2γ2S, cRNA ratio 1:1:1), GABAC (rat ρ1), glycine (rat α1), and purinergic (human P2X) receptors expressed in Xenopus oocytes. cRNA encoding the receptor subunits was synthesized from linear template cDNA using the mMessage mMachine kit (Ambion). Oocytes were injected with 1-5 ng cRNA in a 50 nL volume and incubated in Barth's solution at 15°C for 2-5 days prior to recording. GluK2-expressing oocyte were incubated in 1 mg/ml (10 µM) concanavalin-A for 10 min prior to recording. The cDNAs encoding GABAC and glycine subunits were provided by Dr. D. Weiss (University of Texas Health Science Center at San Antonio). cDNAs encoding nicotinic acetylcholine receptor subunits were provided by Drs. […]
GABA. […] Responses in presence of test compound were expressed as a percent of control. […]

O=C(O)CC(F)(F)C(=O)N1N=C(c2c(-c3ccc(Cl)cc3)c3ccccc3[nH]c2=O)C[C@H]1c1ccc(Cl)cc1 [(S)-(−)-2i]
off-target actions: no effects; also recorded: no activity
